From patent publication US4115453A (Miles Laboratories, Inc., priority 1977, dated 1978) come the findings set out here.

Assay [1] relates to gastric secretion. Description: Test B: Inhibition of Rodent Gastric Secretion (pylorus-ligated rat). It counts as in vivo. The conditions noted are these: subcutaneous, 2 x 1.5 mg/kg (total 3.0 mg/kg), 4 hours after pyloric ligation. On the procedure: A procedure based on that described by Lipmann (J. Pharm. Pharmacol., 21:335 [ 1968]) was used to assess the influence of test compounds on gastric secretion. Rats of one sex weighing 150 to 200 g were randomly divided into groups of six animals each and fasted for 48 hours previously to the experiments, water being available adlibitum. The animals were anesthetized with ether, the abdomen was opened through a midline incision and the pylorus was ligated. Test compounds were diluted from stock solution so as to administer a dose of 1.5 mg/kg in a volume equivalent to 1 ml/kg. Subcutaneous injections were applied immediately after surgery and again 2 hours later, so that a total dose of 3.0 mg/kg was administered. Dilutions were made with phosphate buffer (pH 7.38) as recommended by Lee et al. (Prostaglandins 3:29 [ 1973]), in order to insure adequate stability of drugs at the subcutaneous depot. Each compound was tested in one group of rats; an additional control group received only the vehicle.
Four hours after pyloric ligation the animals were killed with ether, the cardias ligated and the stomachs removed. The volume of gastric secretion was measured and the contents centrifuged at 5000 rpm for 10 minutes. Total acid in the supernatant was titrated against a 0.1 N sodium hydroxide solution and the amount expressed in mEq.
Volume and total acid values of the treated group were compared with those of the controls by the "T" test. Antisecretory activity was scored according to the following scale: […]

In assay [2] the test system is human platelet aggregation. Description: Test A: Inhibition of Human Platelet Aggregation. To be noted: human platelet rich plasma, in vitro, collagen-induced, 37° C, 15 minutes. It counts as cell-based. On the procedure:
The ability of test compounds to inhibit platelet aggreagation was determined by a modification of the turbidometric technique of Born (Nature, 194: 927 [1962]). Blood was collected from human volunteer who had not ingested aspirin or aspirin-containing products within the preceding two weeks in heparinized containers and was allowed to settle for one (1) hour. The platelet rich plasma (prp) supernates were collected and cooled. Siliconized glassware was used throughout.
In a representative assay 1.9 ml of PRP and 0.2 ml of test compound at the appropriate concentrations (0.001 to 100 mcgm), or 0.2 ml of distilled water (control procedure) were placed in sample cuvettes. The cuvettes were placed in a 37° C incubation block for 15 minutes, and then in a spectrophotometer linked to a strip chart recorder. After 30-60 seconds, 0.2 ml of a solution, prepared by diluting a calf-skin collagen solution 1:9 with Tyrodes' Solution, was added to each cuvette. Platelet aggregation was evidenced by a decrease in optical density.
An ED50 value was then determined graphically.

Consider `O=C(O)CCCCCC[C@H]1C(=O)CC[C@@H]1/C=C/[C@@H](O)CCCCC1CCCC2CCCCC21` (relative stereo) [TR-4189, dl-7-{5-oxo-2R[3S-hydroxy-7-(bicyclo[4.4.0]dec-2-yl)-1E-heptenyl]cyclopent-1R-yl}heptanoic acid], for which the “Activity Value Test B (% decrease in acidity)” value in assay [1] was 0 (<26). In addition, in assay [2], the “Activity Value Test A (ED50, inhibition of platelet aggregation)” value is recorded as 1 (>1.0).
With `COC(=O)CCCCCC[C@@H]1[C@@H](/C=C/[C@@H](O)C2CC3CCC3C2)[C@H](O)C[C@H]1O` (stereo partly drawn) [TR-4712, methyl 7-{3R,5R-dihydroxy-2R-[3S-hydroxy-3-(bicyclo[3.2.0]hept-3-yl)-1E-propenyl]cyclopent-1R-yl}heptanoate], in assay [1], the “Activity Value Test B (% decrease in acidity)” value is listed as 2 (26-50, significant).
As for `O=C(O)CCCCCC[C@H]1C(=O)CC[C@@H]1/C=C/[C@H](O)CCCCC1CCCC2CCCCC21` (relative stereo) [TR-4190, dl-7-{5-oxo-2R-[3R-hydroxy-7-(bicyclo[4.4.0]dec-2-yl)-1E-heptenyl]cyclopent-1R-yl}heptanoic acid], in assay [1], the “Activity Value Test B (% decrease in acidity)” value is reported as 0 (<26). For the same compound, the “Activity Value Test A (ED50, inhibition of platelet aggregation)” value in assay [2] is given as 1 (>1.0).
For the compound `COC(=O)CCCCCC[C@@H]1[C@@H](/C=C/[C@@H](O)C2CC3CCC3C2)[C@H](O)C[C@@H]1O` (stereo partly drawn) [TR-4711, methyl 7-{3R, 5S-dihydroxy-2R-[3S-hydroxy-3-(bicyclo[3.2.0]hept-3-yl)-1E-propenyl]cyclopent-1R-yl}heptanoate], the “Activity Value Test B (% decrease in acidity)” value in assay [1] is 1 (26-50, not significant).
Take `O=C(O)CCC/C=C\C[C@H]1C(=O)CC[C@@H]1/C=C/[C@H](O)CCCCC1CCCC2CCCCC21` (relative stereo) [TR-4174, dl-7-{5-oxo-2R-[3R-hydroxy-7-(bicyclo[4.4.0]dec-2-yl)-1E-heptenyl]cyclopent-1R-yl}-hept-5Z-enoic acid]: the “Activity Value Test A (ED50, inhibition of platelet aggregation)” value in assay [2] is listed as 1 (>1.0).
Still for that read-out and setting: as for `O=C(O)CCC/C=C\C[C@H]1C(=O)CC[C@@H]1/C=C/[C@H](O)CCCCC1CCCC2CCCCC21` (mixture of isomers) [TR-4173, dl-7-{5-oxo-2R-[3R-hydroxy-7-(bicyclo[4.4.0]dec-2-yl)-1E-heptenyl]cyclopent-1R-yl}hept-5Z-enoic acid], the figure is 1 (>1.0).
